In patent publication US20250320496A1, “MODULATION OF ABCB11 GENE TRANSCRIPTION USING ANTISENSE OLIGONUCLEOTIDES TARGETING REGULATORY RNAS” (CAMP4 Therapeutics Corporation, priority 2022, published 2025):
Strand notation (5' to 3'): a small letter for the sugar, then the base; units joined by * are phosphorothioate-linked, units joined directly phosphodiester-linked; [ ] holds rarer units or linkages, { } end groups; capitals alone tell only the bases. e = 2'-O-(2-methoxyethyl) (MOE); {TEG} = Teg-GalNAc conjugate; [5mC] = 5-methylcytosine

Key:
human ABCB11 mRNA [1] = test: Liver-humanized FRG knockout mice, human ABCB11 mRNA in liver by qPCR; assay type: in vivo
Experimental: (§1) In a first in vivo study, female liver-humanized FRG® (Fah^−/−; Rag2^−/−; Il2rg^−/−) knockout mice (Yecuris™) were used to assess the efficacy of the human ABCB11 regRNA-targeting ASOs CO-3986 and CO-4535 in the context of cholestasis. The mice were grouped evenly based on albumin and body weight.
A. First Study. Two groups of five mice were dosed with GalNAc3—CO-7378 (CO-3986 conjugated to GalNAc3) or GalNAc3—CO-7379 ([…]) respectively, control via subcutaneous (SC) injection on Days 0 and 7. One group of five mice was dosed with PBS control via SC injection on Days 0 and 7. […] The serum (two tubes for each animal, 15 μL and 25 μL, for each timepoint) was analyzed using LC-MS (Creative Proteomics) to assess bile acids and 7αC4 levels. The remaining samples collected were analyzed for total serum bile acid levels using a commercial kit. […]
(§2) Frozen liver pieces were pulverized on dry ice and RNA extracted using TRIzol™ reagent. cDNA was generated and analyzed using qPCR to detect ABCB11 mRNA levels and other genes of interest as described above. Serum 7αC4 levels were detected using LC-MS (Creative Proteomics). Total serum bile acids were measured using the Total Bile Acid Fluorometric Assay Kit (Cell BioLabs). Liver bile acids were measured using the Total Bile Acid Fluorometric Assay Kit.

CYP7A1 mRNA = test: ASO treatment of primary human hepatocytes (PHH), CYP7A1 mRNA by RT-qPCR normalized to B2M; assay type: cell-based
Experimental: Primary human hepatocytes (PHH) were thawed using Lonza Human Cryopreserved Hepatocyte Thawing Medium and plated in 96-well collagen-coated plates (5.5-6.0×10^4 cells per well). Four hours later, the media was replaced with sterile-filtered QualGro™ Hepatocyte Culture Medium (BioIVT) containing antibiotic supplement, 0.3 mg/ml Matrigel® matrix (Corning®), and ASO at the desired concentration (e.g., 1.25 μM, 2.5 μM, 5 μM, or 10 μM). […] Plates were frozen at-80° C. during cell lysis. After thawing, total RNA was isolated using the Qiagen RNEasy kit as instructed by manufacturer. cDNA (random-primed) was synthesized from 10 μl of RNA using the LifeTech High Capacity cDNA Reverse Transcription kit. 2 μl of cDNA was used for reverse transcription-quantitative PCR (RT-qPCR) analyses using standard Taqman” reagents from Applied Biosystems™ to measure ABCB11 and CYP7A1 gene expression. Gene expression data was normalized to the housekeeper gene, beta-2-microglobulin (B2M).
ASOs targeting ABCB11 regRNA enhance bile acid efflux in vitro. Levels of cholesterol 7 alpha-hydroxylase (CYP7A1) mRNA (or the enzymatic activity of its protein) can be used to track changes in bile acid synthesis in the liver since the CYP7A1 protein is the first and rate-limiting step in the conversion of cholesterol to bile acids (see, e.g., Chiang and Ferrel (2020) Liver Res. 4 (2): 47-63). […] Conversely, when bile acid levels reach high levels, this gene is actively down regulated. These changes are mediated by farnesoid X receptor (FXR), a sensor of bile acid levels, and the master regulator of intracellular bile acid concentrations. CYP7A1 mRNA can therefore be used as a surrogate for monitoring changes in hepatic bile acids in response to ASO treatment. Accordingly, an ASO that successfully increases ABCB11 expression would be expected to promote increased bile acid efflux, thus reducing bile acid levels in the cell. In a wild-type (non-disease) setting, this reduction promotes a compensatory increase in CYP7A1 to restore normal levels.

bile acid efflux in PHHs = test: In vitro biliary clearance assay (B-CLEAR) in PHHs, d8-TCA by LC-MS; assay type: cell-based, human
Experimental: The ACCULIVER™ Human Biliary Clearance Kit (also known as the B-CLEAR® assay; BioIVT) was used to assess bile acid efflux in PHHs after ASO treatment. On Day 0, 4×10^5 cells were plated in 24-well collagen-coated plates and QualGro medium containing […] matrix and ASO was added 4 hrs. later. On Day 2, medium was refreshed. On Day 3, cells from some wells were harvested for RNA analysis using 350 μl Buffer RLT lysis buffer, and lysates frozen at −80° C. for later RNA extraction. On Day 4, cells in the remaining wells had medium refreshed. On Day 6, the assay was performed according to the manufacturer's instructions. Briefly, cells were conditioned with Plus or Minus Buffers provided with the assay for 10 minutes, followed by addition of deuterium-labelled sodium taurocholate (d8-TCA) for 10 mins. Cells were washed 3 times, and frozen after the final wash. Analysis of d8-TCA was performed using liquid chromatography-mass spectrometry (LC-MS) (BioIVT). Calculations of bile acid clearance were made from the resulting LC-MS data according to the manufacturer's instructions.

human ABCB11 mRNA [2] = test: ASO treatment of primary human hepatocytes (PHH), ABCB11 mRNA by RT-qPCR normalized to B2M; assay type: cell-based; set-up: ABCB11 mRNA, dose titration: unit of the concentration uncertain
How it was run: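 Plated primary human hepatocytes were treated 4 h post-thaw with ASO (e.g., 1.25–10 μM; initial screen 5 μM) in medium containing 0.3 mg/ml Matrigel for 72 hrs. Total RNA was reverse-transcribed and ABCB11 mRNA measured by Taqman RT-qPCR, normalized to B2M, with fold change versus untreated PHHs.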

bile acids = test: Liver-humanized FRG knockout mice, liver and serum bile acids; assay type: in vivo, mouse
Experimental: as §1
A. First Study. Two groups of five mice were dosed with GalNAc3—CO-7378 (CO-3986 conjugated to GalNAc3) or GalNAc3—CO-7379 ([…]) respectively, control via subcutaneous (SC) injection on Days 0 and 7. One group of five mice was dosed with PBS control via SC injection on Days 0 and 7. A fourth group of five mice was treated with ursodeoxycholic acid (UDCA) via intraperitoneal (IP) injection on Days 14-21. […] On Day 21, the animals were euthanized for terminal harvest after fasting overnight and >350 μL of whole blood was processed to serum. 100 μL of whole blood was collected in the same manner as the previous bleeds, prior to euthanasia and final exsanguination. Harvested livers were perfused with cold PBS with the left lobe and remnant liver frozen separately after bile salt collection. A piece of the ileum tissue was removed and flushed with PBS and snap-frozen. The serum (two tubes for each animal, 15 μL and 25 μL, for each timepoint) was analyzed using LC-MS (Creative Proteomics) to assess bile acids and 7αC4 levels. The remaining samples collected were analyzed for total serum bile acid levels using a commercial kit.
(§3) B. Second Study. In a second in vivo study was conducted to assess the ability of CO-11202 (CO-12367 conjugated with GalNAc3). Mice were dosed with […] on Days 0 and 7 via SC injection. One group of five mice were dosed with PBS control via SC injection on Days 0 and 7. One group of five mice received 10 mg/kg of obeticholic acid (OCA) via oral gavage daily for 21 days. Fasting blood was collected from the mice on Days 0, 7, 14 and 21 (collection performed prior to any SC injections) and processed to serum to analyze bile acid levels. On Day 21, mice were euthanized and livers and ileum tissue harvested and processed as described above.
as §2

mouse Abcb11 mRNA = test: Liver-humanized FRG knockout mice, mouse Abcb11 mRNA in liver; assay type: in vivo; conditions: second study, liver-humanized FRG knockout mice (FIG. 15A)
Experimental: as §3, §2

Substance | human ABCB11 expression (human ABCB11 mRNA [1]; first study, SC on Days 0 and 7) | expression of CYP7A1 mRNA, dose response (CYP7A1 mRNA; PHHs (FIG. 3B)) | CYP7A1 expression (CYP7A1 mRNA; PHHs of the B-CLEAR experiment (FIG. 7B)) | intracellular and extracellular bile acid levels (bile acid efflux in PHHs; 5 μM and 10 μM ASO, bile acid efflux assay (FIG. 7C)) | efflux of bile acids from the intracellular compartment to the bile cannuliculi (bile acid efflux in PHHs; B-CLEAR assay) | ABCB11 expression (duplicate wells, qRT-PCR) (human ABCB11 mRNA [2]; PHHs of the B-CLEAR experiment, dose response (FIG. 7A)) | upregulation of ABCB11 mRNA (human ABCB11 mRNA [2]; PHHs, Day 3, normalized to untreated PHHs) | ABCB11 mRNA, dose titration (human ABCB11 mRNA [2]; PHHs, CO-3986 and CO-4529 tested at 2.5 (unit uncertain), 5 μM, and 10 μM) | ABCB11 mRNA FC (5 μM ASO vs. UNT) (human ABCB11 mRNA [2]; primary human hepatocytes, 5 μM ASO, normalized to untreated PHHs (UNT)) [fold change] | liver bile acid efflux (bile acids; first study, liver-humanized FRG knockout mice) | ratio of liver bile acid (BA) to serum BA (bile acids; first study, liver-humanized FRG knockout mice (FIG. 9B)) | intracellular bile acids (bile acids; first study, liver-humanized FRG knockout mice, ASO-treated mice) | human ABCB11 expression (human ABCB11 mRNA [1]; second study, 10 mg/CO-12367 SC on Days 0 and 7) | mouse Abcb11 expression (mouse Abcb11 mRNA) | serum bile acid levels (bile acids; second study, liver-humanized FRG knockout mice (FIG. 15B))
CO-3986: ASO targeting paRNA RR63 of human ABCB11 (antisense eT*eG*eT*eT*eT*eT*eG*e[5mC]*eT*eT*eG*eG*eT*e[5mC]*eA*eA*eG*eA*eG*eG) | increased human ABCB11 expression | increased expression of CYP7A1 mRNA in a dose-dependent manner | upregulated | reduced intracellular and extracellular bile acid levels | increased | increased ABCB11 expression | approximately 1.5 fold | dose-dependent increase | 1.27 | increased efflux of bile acid | decreased ratio of liver bile acid (BA) to serum BA | lower levels of intracellular bile acids | – | – | –
CO-12367: GalNAc3 conjugate counterpart of CO-11202, dosed SC in liver-humanized mice (antisense eT*eG*eTeT*eT*eT*eG*e[5mC]eT*eT*eG*eG*eTe[5mC]*eA*eA*eG*eAeG*eG-{TEG}) | – | – | – | – | – | – | – | – | – | – | – | – | increased human ABCB11 expression | without affecting mouse Abcb11 expression | decrease in serum bile acid levels
